Species: Rattus norvegicus
Test: DrugMatrix - Regimen: Daily Repeat
Assay type: toxicity, organism-based, Sprague-Dawley
Parameters: regimen Daily Repeat, gender Male, age 6-8 weeks
Conditions: in vivo, po, route oral GAVAGE, vehicle 100 % WATER; for ABSOLUTE BASOPHIL / ABSOLUTE EOSINOPHIL / ABSOLUTE LYMPHOCYTE / ABSOLUTE MONOCYTE / ABSOLUTE SEGMENTED NEUTROPHIL / BASOPHIL / EOSINOPHIL / ERYTHROCYTE COUNT / HEMATOCRIT / HEMOGLOBIN / LEUKOCYTE COUNT / LYMPHOCYTE / MEAN CORPUSCULAR HEMOGLOBIN / MEAN CORPUSCULAR HEMOGLOBIN CONCENTRATION / MEAN CORPUSCULAR VOLUME / MONOCYTE / NEUTROPHIL / NUCLEATED RED BLOOD CELLS / PLATELET COUNT: tissue Blood; for ALANINE AMINOTRANSFERASE / ALBUMIN / ALKALINE PHOSPHATASE / ASPARTATE AMINOTRANSFERASE / BLOOD UREA NITROGEN / CARBON DIOXIDE / CHLORIDE / CHOLESTEROL / CREATINE PHOSPHOKINASE / CREATININE / GLUCOSE / LACTATE DEHYDROGENASE / LIPASE / PHOSPHORUS / POTASSIUM / SODIUM / TOTAL BILIRUBIN / TOTAL PROTEIN / URIC ACID: tissue Plasma
[1] = 0 mg/kg, 72 h, dose level Control, time 3 day
[2] = 0 mg/kg, 120 h, dose level Control, time 5 day
[3] = 14 mg/kg, 72 h, dose level Low, time 3 day

`C[C@H]1c2cccc(O)c2C(=O)C2=C(O)[C@]3(O)C(=O)C(C(N)=O)=C(O)[C@@H](N(C)C)[C@@H]3[C@@H](O)[C@@H]21.O` [DOXYCYCLINE] was tested, and the “ABSOLUTE BASOPHIL” value [1] was 0 CELLS/uL, the “ABSOLUTE EOSINOPHIL” value [1] was 86.33 CELLS/uL and the “ABSOLUTE LYMPHOCYTE” value [1] was 12090.17 CELLS/uL. For the same compound, the “ABSOLUTE MONOCYTE” value [1] was 166.67 CELLS/uL, the “ABSOLUTE SEGMENTED NEUTROPHIL” value [1] was 1090.17 CELLS/uL and the BASOPHIL [1] was 0%. The EOSINOPHIL [1] was 0.67%, the “ERYTHROCYTE COUNT” value [1] was 5.57 x10E6/uL and the HEMATOCRIT [1] was 35.33%. The HEMOGLOBIN [1] was 13.83 G/DL, the “LEUKOCYTE COUNT” value [1] was 13.43 x10E3/uL and the LYMPHOCYTE [1] was 89.83%. The “MEAN CORPUSCULAR HEMOGLOBIN” value [1] was 24.88 pg, the “MEAN CORPUSCULAR HEMOGLOBIN CONCENTRATION” value [1] was 39.15 G/DL and the “MEAN CORPUSCULAR VOLUME” value [1] was 63.52 fL. For the same compound, the MONOCYTE [1] was 1.17%, the NEUTROPHIL [1] was 8.33% and the “NUCLEATED RED BLOOD CELLS” value [1] was 0 /100WBC. The “PLATELET COUNT” value [1] was 1181.33 x10E3/uL, the “ALANINE AMINOTRANSFERASE” value [1] was 48.33 u/L and the ALBUMIN [1] was 4.1 G/DL. The “ALKALINE PHOSPHATASE” value [1] was 395 u/L, the “ASPARTATE AMINOTRANSFERASE” value [1] was 81.83 u/L and the “BLOOD UREA NITROGEN” value [1] was 15.83 mg/dL. The “CARBON DIOXIDE” value [1] was 24.17 mmol/L, the CHLORIDE [1] was 103.83 MEQ/L and the CHOLESTEROL [1] was 63.67 mg/dL. For the same compound, the “CREATINE PHOSPHOKINASE” value [1] was 372.83 u/L, the CREATININE [1] was 0.18 mg/dL and the GLUCOSE [1] was 173.83 mg/dL. The “LACTATE DEHYDROGENASE” value [1] was 188.33 u/L, the LIPASE [1] was 9.5 u/L and the PHOSPHORUS [1] was 11.95 mg/dL. For the same compound, the POTASSIUM [1] was 5.99 MEQ/L, the SODIUM [1] was 144.43 MEQ/L and the “TOTAL BILIRUBIN” value [1] was 0.15 mg/dL. The “TOTAL PROTEIN” value [1] was 5.95 G/DL, the “URIC ACID” value [1] was 1.82 mg/dL and the “ABSOLUTE BASOPHIL” value [2] was 0 CELLS/uL. The “ABSOLUTE EOSINOPHIL” value [2] was 26.67 CELLS/uL, the “ABSOLUTE LYMPHOCYTE” value [2] was 7583.83 CELLS/uL and the “ABSOLUTE MONOCYTE” value [2] was 131.33 CELLS/uL. The “ABSOLUTE SEGMENTED NEUTROPHIL” value [2] was 674.83 CELLS/uL, the BASOPHIL [2] was 0% and the EOSINOPHIL [2] was 0.33%. The “ERYTHROCYTE COUNT” value [2] was 5.78 x10E6/uL, the HEMATOCRIT [2] was 36.48% and the HEMOGLOBIN [2] was 14.03 G/DL. The “LEUKOCYTE COUNT” value [2] was 8.42 x10E3/uL, the LYMPHOCYTE [2] was 89.83% and the “MEAN CORPUSCULAR HEMOGLOBIN” value [2] was 24.3 pg. For the same compound, the “MEAN CORPUSCULAR HEMOGLOBIN CONCENTRATION” value [2] was 38.52 G/DL, the “MEAN CORPUSCULAR VOLUME” value [2] was 63.15 fL and the MONOCYTE [2] was 1.67%. For the same compound, the NEUTROPHIL [2] was 8.17%, the “NUCLEATED RED BLOOD CELLS” value [2] was 0 /100WBC and the “PLATELET COUNT” value [2] was 1186.67 x10E3/uL. For the same compound, the “ALANINE AMINOTRANSFERASE” value [2] was 50.17 u/L, the ALBUMIN [2] was 4.07 G/DL and the “ALKALINE PHOSPHATASE” value [2] was 367.5 u/L. The “ASPARTATE AMINOTRANSFERASE” value [2] was 81.67 u/L, the “BLOOD UREA NITROGEN” value [2] was 16.17 mg/dL and the “CARBON DIOXIDE” value [2] was 32.33 mmol/L. The CHLORIDE [2] was 101.5 MEQ/L, the CHOLESTEROL [2] was 65.33 mg/dL and the “CREATINE PHOSPHOKINASE” value [2] was 255.33 u/L. For the same compound, the CREATININE [2] was 0.17 mg/dL, the GLUCOSE [2] was 139.33 mg/dL and the “LACTATE DEHYDROGENASE” value [2] was 95 u/L. For the same compound, the LIPASE [2] was 10.5 u/L, the PHOSPHORUS [2] was 10.38 mg/dL and the POTASSIUM [2] was 6.11 MEQ/L. The SODIUM [2] was 145.55 MEQ/L, the “TOTAL BILIRUBIN” value [2] was 0.17 mg/dL and the “TOTAL PROTEIN” value [2] was 5.98 G/DL. The “URIC ACID” value [2] was 0.93 mg/dL, the “ABSOLUTE BASOPHIL” value [3] was 0 CELLS/uL and the “ABSOLUTE EOSINOPHIL” value [3] was 116.33 CELLS/uL. For the same compound, the “ABSOLUTE LYMPHOCYTE” value [3] was 13980 CELLS/uL, the “ABSOLUTE MONOCYTE” value [3] was 147.67 CELLS/uL and the “ABSOLUTE SEGMENTED NEUTROPHIL” value [3] was 1122.67 CELLS/uL. For the same compound, the BASOPHIL [3] was 0%, the EOSINOPHIL [3] was 0.67% and the “ERYTHROCYTE COUNT” value [3] was 5.35 x10E6/uL. For the same compound, the HEMATOCRIT [3] was 33.67%, the HEMOGLOBIN [3] was 13.37 G/DL and the “LEUKOCYTE COUNT” value [3] was 15.37 x10E3/uL. For the same compound, the LYMPHOCYTE [3] was 90.33%, the “MEAN CORPUSCULAR HEMOGLOBIN” value [3] was 25 pg and the “MEAN CORPUSCULAR HEMOGLOBIN CONCENTRATION” value [3] was 39.73 G/DL. The “MEAN CORPUSCULAR VOLUME” value [3] was 62.97 fL, the MONOCYTE [3] was 1% and the NEUTROPHIL [3] was 8%. The “NUCLEATED RED BLOOD CELLS” value [3] was 0 /100WBC, the “PLATELET COUNT” value [3] was 1183 x10E3/uL and the “ALANINE AMINOTRANSFERASE” value [3] was 54 u/L. The ALBUMIN [3] was 3.97 G/DL, the “ALKALINE PHOSPHATASE” value [3] was 325.67 u/L and the “ASPARTATE AMINOTRANSFERASE” value [3] was 90 u/L. For the same compound, the “BLOOD UREA NITROGEN” value [3] was 18 mg/dL, the “CARBON DIOXIDE” value [3] was 24.33 mmol/L and the CHLORIDE [3] was 103.67 MEQ/L. The CHOLESTEROL [3] was 61.33 mg/dL, the “CREATINE PHOSPHOKINASE” value [3] was 372 u/L and the CREATININE [3] was 0.12 mg/dL. The GLUCOSE [3] was 163.33 mg/dL, the “LACTATE DEHYDROGENASE” value [3] was 339 u/L and the LIPASE [3] was 8.67 u/L. For the same compound, the PHOSPHORUS [3] was 11.87 mg/dL, the POTASSIUM [3] was 5.76 MEQ/L and the SODIUM [3] was 143.73 MEQ/L. The “TOTAL BILIRUBIN” value [3] was 0.2 mg/dL, the “TOTAL PROTEIN” value [3] was 5.77 G/DL and the “URIC ACID” value [3] was 1.13 mg/dL.

— ChEMBL document CHEMBL3885881, “DrugMatrix”
